In patent US20260022142A1, “MACROCYCLIC IMMUNOMODULATORS” (Bristol-Myers Squibb Company, priority 2022, published 2026):
Numbered stars: 1 amine (or outer) side, 2 acyl side, 3 side chain; on linkers, the order of the positions; unused ones are H or OH. Bridge positions count the residues as written; N and C are the ends. Square brackets hold non-standard residues; d marks the D form. Peptide text beside a SMILES is read from it. * marks the point of attachment. Phe(3-CF3) = N[C@@H](Cc1cccc(C(F)(F)F)c1)C(=O)O; Ala(morpholin-4-yl) = N[C@@H](CN1CCOCC1)C(=O)O; Phe(4-COOH) = N[C@@H](Cc1ccc(C(=O)O)cc1)C(=O)O; Bip = N[C@@H](Cc1ccc(-c2ccccc2)cc1)C(=O)O; Tyr(3-Me) = Cc1cc(C[C@H](N)C(=O)O)ccc1O; Phe(3-Me) = Cc1cccc(C[C@H](N)C(=O)O)c1; βAsp = O=C(O)[C@H](CC(=O)[*:2])N[*:1]; NH(CH2)12COOH = O=C(O)CCCCCCCCCCCCN*; Val(3-OH) = CC(C)(O)[C@H](N)C(=O)O; 4Pal = N[C@@H](Cc1ccncc1)C(=O)O; Cha = N[C@@H](CC1CCCCC1)C(=O)O; Cit = NC(=O)NCCC[C@H](N)C(=O)O; dNle = CCCC[C@@H](N)C(=O)O; 4Abz = Nc1ccc(C(=O)O)cc1; Carboxymethyl = O=C(O)C*; Orn = NCCC[C@H](N)C(=O)O; Aun = NCCCCCCCCCCC(=O)O; Dab = NCC[C@H](N)C(=O)O; Dap = NC[C@H](N)C(=O)O; AEEA = NCCOCCOCC(=O)O

biological target: T1, PD-1/PD-L1 interaction (PE-labeled human PD-L1-Ig binding to Jurkat cell line over-expressing human PD-1) (Homo sapiens, UniProt Q15116); assay: Jurkat-PD-1 Cell Binding High-Content Screening Assay (CBA); format: cell-based; conditions: Jurkat cell line over-expressing human PD-1; PE-labeled PD-L1-Ig 20 nM final; read-out: Jurkat hPD1-PDL1 IC50
T1 construct: expressed in transfected cells; host or cells: Jurkat
Method in brief: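 Binding of fluorescent PD-L1-Ig (20 nM final) to Jurkat-PD-1 cells was measured by automated imaging after 1 h, following a 2 h compound pre-treatment at 37° C.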

T1 sequence (Q15116 25-288): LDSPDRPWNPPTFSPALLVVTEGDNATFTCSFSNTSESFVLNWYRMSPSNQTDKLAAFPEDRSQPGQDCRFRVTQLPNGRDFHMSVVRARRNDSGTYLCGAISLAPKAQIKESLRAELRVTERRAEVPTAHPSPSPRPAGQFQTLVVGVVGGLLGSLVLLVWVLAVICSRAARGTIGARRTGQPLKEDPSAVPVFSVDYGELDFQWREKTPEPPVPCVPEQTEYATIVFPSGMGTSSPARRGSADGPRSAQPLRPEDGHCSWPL

| IC50 [nM] | Structure (SMILES) |
| --- | --- |
| 11 | Cc1cccc(C[C@@H]2NC(=O)[C@H](CC(=O)O)NC(=O)[C@H](Cc3ccc(OCC(=O)O)cc3)NC(=O)[C@H](CC(N)=O)NC(=O)CSC[C@@H](C(=O)N[C@@H](CCN)C(=O)NCCCCCCCCCCC(=O)O)NC(=O)[C@H](CCCN)NC(=O)[C@H](C(C)C)NC(=O)[C@H](CC3CCCCC3)NC(=O)[C@H](CCN)NC(=O)[C@@H](CC(C)C)NC(=O)[C@H](CCCN)NC(=O)[C@H](Cc3ccc(O)cc3)NC(=O)[C@H](Cc3ccc(-c4ccccc4)cc3)NC(=O)[C@H](C(C)C)NC2=O)c1 [Compound 2698] ({CH2CO}-NY(Carboxymethyl)D[Phe(3-Me)]V[Bip]Y[Orn][dL][Dab][Cha]V[Orn]C[Dab][Aun]-OH; thioether N-14) |
| 22.4 | CC(C)C[C@H]1NC(=O)[C@H](CCCN)NC(=O)[C@H](Cc2ccc(C(=O)O)cc2)NC(=O)[C@H](Cc2ccc(-c3ccccc3)cc2)NC(=O)[C@H](Cc2ccc(C(=O)O)cc2)NC(=O)[C@H](Cc2cccc(C(F)(F)F)c2)NC(=O)[C@H](CC(=O)O)NC(=O)[C@H](Cc2ccc(OCC(=O)O)cc2)NC(=O)[C@H](CN2CCOCC2)NC(=O)CSC[C@@H](C(=O)N[C@@H](CCN)C(=O)NCCCCCCCCCCCCC(=O)O)NC(=O)[C@H](CO)NC(=O)[C@H](C(C)(C)O)NC(=O)[C@H](CC2CCCCC2)NC(=O)[C@H](CCN)NC1=O [Compound 2918] ({CH2CO}-[Ala(morpholin-4-yl)]Y(Carboxymethyl)D[Phe(3-CF3)][Phe(4-COOH)][Bip][Phe(4-COOH)][Orn][dL][Dab][Cha][Val(3-OH)]SC[Dab]-{NH(CH2)12COOH}; thioether N-14) |
| 12.1 | Cc1cccc(C[C@@H]2NC(=O)[C@H](CC(=O)O)NC(=O)[C@H](Cc3ccc(OCC(=O)O)cc3)NC(=O)[C@H](Cc3ccncc3)NC(=O)CSC[C@@H](C(=O)N[C@@H](CCN)C(=O)NCCOCCOCC(=O)NCCCCCCCCCCC(=O)O)NC(=O)[C@H](CO)NC(=O)[C@H](C(C)(C)O)NC(=O)[C@H](CC3CCCCC3)NC(=O)[C@H](CCN)NC(=O)[C@@H](CC(C)C)NC(=O)[C@H](CCC(N)=O)NC(=O)[C@H](Cc3ccc(C(=O)O)cc3)NC(=O)[C@H](Cc3ccc(-c4ccccc4)cc3)NC(=O)[C@H](Cc3ccc(C(=O)O)cc3)NC2=O)c1 [Compound 3747] ({CH2CO}-[4Pal]Y(Carboxymethyl)D[Phe(3-Me)][Phe(4-COOH)][Bip][Phe(4-COOH)]Q[dL][Dab][Cha][Val(3-OH)]SC[Dab][AEEA][Aun]-OH; thioether N-14) |

The remaining lines, values behind:

| Structure (SMILES) | IC50 [nM] |
| --- | --- |
| Cc1cccc(C[C@@H]2NC(=O)[C@H](CC(=O)O)NC(=O)[C@H](Cc3ccc(OCC(=O)O)cc3)NC(=O)[C@H](CN)NC(=O)CSC[C@@H](C(=O)N[C@@H](C)C(=O)N[C@@H](CO)C(=O)NCCCCCCCCCCC(=O)O)NC(=O)[C@H]([C@@H](C)O)NC(=O)[C@H](C(C)C)NC(=O)[C@H](CC3CCCCC3)NC(=O)[C@H](Cc3cnc[nH]3)NC(=O)[C@@H](CC(C)C)NC(=O)[C@H](CCCN)NC(=O)[C@H](C(C)C)NC(=O)[C@H](Cc3ccc(-c4ccccc4)cc3)NC(=O)[C@H](C(C)C)NC2=O)c1 [Compound 1115] ({CH2CO}-[Dap]Y(Carboxymethyl)D[Phe(3-Me)]V[Bip]V[Orn][dL]H[Cha]VTCAS[Aun]-OH; thioether N-14) | 26 |
| Cc1cc(C[C@@H]2NC(=O)[C@H](CC(=O)O)NC(=O)[C@H](Cc3ccc(OCC(=O)O)cc3)NC(=O)[C@H](CCCNC(=N)N)NC(=O)CSC[C@@H](C(=O)N[C@@H](CCN)C(=O)NCCCCCCCCCCC(=O)O)NC(=O)[C@H]([C@@H](C)O)NC(=O)[C@H](C(C)C)NC(=O)[C@H](CC3CCCCC3)NC(=O)[C@H](CCN)NC(=O)[C@@H](CC(C)C)NC(=O)[C@H](CCCN)NC(=O)[C@H](Cc3ccc(OCC(=O)O)cc3)NC(=O)[C@H](Cc3ccc(-c4ccccc4)cc3)NC(=O)[C@H](Cc3ccc(O)cc3)NC2=O)ccc1O [Compound 2106] ({CH2CO}-RY(Carboxymethyl)D[Tyr(3-Me)]Y[Bip]Y(Carboxymethyl)[Orn][dL][Dab][Cha]VTC[Dab][Aun]-OH; thioether N-14) | 15.9 |
| Cc1cccc(C[C@@H]2NC(=O)[C@H](CC(=O)O)NC(=O)[C@H](Cc3ccc(OCC(=O)O)cc3)NC(=O)[C@H](CN)NC(=O)CSC[C@@H](C(=O)NCCOCCOCC(=O)N[C@@H](CCN)C(=O)NCCCCCCCCCCC(=O)O)NC(=O)[C@H](CN)NC(=O)[C@H](C(C)C)NC(=O)[C@H](CC3CCCCC3)NC(=O)[C@H](CCN)NC(=O)[C@@H](CC(C)C)NC(=O)[C@H](CCCN)NC(=O)[C@H](CCC(=O)O)NC(=O)[C@H](Cc3ccc(-c4ccccc4)cc3)NC(=O)[C@H](C(C)C)NC2=O)c1 [Compound 2658] ({CH2CO}-[Dap]Y(Carboxymethyl)D[Phe(3-Me)]V[Bip]E[Orn][dL][Dab][Cha]V[Dap]C[AEEA][Dab][Aun]-OH; thioether N-14) | 18 |
| CCCC[C@H]1NC(=O)[C@H](CCCN)NC(=O)[C@H](C(C)C)NC(=O)[C@H](Cc2ccc(-c3ccccc3)cc2)NC(=O)[C@H](C(C)C)NC(=O)[C@H](Cc2cccc(C)c2)NC(=O)[C@H](CC(=O)O)NC(=O)[C@H](Cc2ccc(OCC(=O)O)cc2)NC(=O)[C@H](CN)NC(=O)CSC[C@@H](C(=O)N[C@@H](CCCCN)C(=O)NCCCCCCCCCCC(=O)O)NC(=O)[C@H](CCCN)NC(=O)[C@H](C(C)C)NC(=O)[C@H](CC2CCCCC2)NC(=O)[C@H](CCN)NC1=O [Compound 2687] ({CH2CO}-[Dap]Y(Carboxymethyl)D[Phe(3-Me)]V[Bip]V[Orn][dNle][Dab][Cha]V[Orn]CK[Aun]-OH; thioether N-14) | 10 |
| CC(C)C[C@@H]1NC(=O)[C@H](Cc2c[nH]c3ccccc23)NC(=O)[C@H](CC(=O)O)NC(=O)[C@H](Cc2ccncc2)NC(=O)[C@H](Cc2ccc(OCC(=O)O)cc2)NC(=O)CSC[C@@H](C(=O)Nc2ccc(C(=O)NCCCCCCCCCCC(=O)O)cc2)NC(=O)[C@H](CCN)NC(=O)[C@H](C(C)C)NC(=O)[C@H](CC2CCCCC2)NC(=O)[C@H](CCN)NC(=O)[C@@H](CC(C)C)NC(=O)[C@H](CCCN)NC(=O)[C@H](C(C)C)NC(=O)[C@H](Cc2ccc(-c3ccccc3)cc2)NC1=O [Compound 1229] ({CH2CO}-Y(Carboxymethyl)[4Pal]DWL[Bip]V[Orn][dL][Dab][Cha]V[Dab]C[4Abz][Aun]-OH; thioether N-14) | 518 |
| Cc1cccc(C[C@@H]2NC(=O)[C@H](CC(=O)O)NC(=O)[C@H](Cc3ccc(OCC(=O)O)cc3)NC(=O)[C@H](CN)NC(=O)CSC[C@@H](C(=O)N[C@@H](CC(=O)NCCCCCCCCCCC(=O)O)C(=O)O)NC(=O)[C@H]([C@@H](C)O)NC(=O)[C@H](C(C)C)NC(=O)[C@H](CC3CCCCC3)NC(=O)[C@H](CCN)NC(=O)[C@@H](CC(C)C)NC(=O)[C@H](CCCN)NC(=O)[C@H](CCCNC(N)=O)NC(=O)[C@H](Cc3ccc(-c4ccccc4)cc3)NC(=O)[C@H](C(C)C)NC2=O)c1 [Compound 1025] ({CH2CO}-[Dap]Y(Carboxymethyl)D[Phe(3-Me)]V[Bip][Cit][Orn][dL][Dab][Cha]VTC[βAsp][Aun]-OH; thioether N-14) | 10.8 |
| Cc1cccc(C[C@@H]2NC(=O)[C@H](CC(=O)O)NC(=O)[C@H](Cc3ccc(OCC(=O)O)cc3)NC(=O)[C@H](CN)NC(=O)CSC[C@@H](C(=O)NCCOCCOCC(=O)NCCCCCCCCCCC(=O)O)NC(=O)[C@H](CN)NC(=O)[C@H](C(C)C)NC(=O)[C@H](CC3CCCCC3)NC(=O)[C@H](CCN)NC(=O)[C@@H](CC(C)C)NC(=O)[C@H](CCCN)NC(=O)[C@H](C(C)C)NC(=O)[C@H](Cc3ccc(-c4ccccc4)cc3)NC(=O)[C@H](C(C)C)NC2=O)c1 [Compound 2566] ({CH2CO}-[Dap]Y(Carboxymethyl)D[Phe(3-Me)]V[Bip]V[Orn][dL][Dab][Cha]V[Dap]C[AEEA][Aun]-OH; thioether N-14) | 9.4 |
